What follows are compounds tested against T1, human MGL from HeLa cells (Homo sapiens, UniProt Q99685) (assay: In vitro MGL activity assay: [glycerol-1,3-3H]-oleyl glycerol cleavage by MGL from HeLa cells). Conditions: 300 nM [Glycerol-1,3-3H]-oleyl glycerol, one hour.
T1 construct: combining endogenously expressed MGL from HeLa cells with test compounds; endogenous in cells; host or cells: HeLa cells / cell homogenates
T1 sequence (Q99685 1-303): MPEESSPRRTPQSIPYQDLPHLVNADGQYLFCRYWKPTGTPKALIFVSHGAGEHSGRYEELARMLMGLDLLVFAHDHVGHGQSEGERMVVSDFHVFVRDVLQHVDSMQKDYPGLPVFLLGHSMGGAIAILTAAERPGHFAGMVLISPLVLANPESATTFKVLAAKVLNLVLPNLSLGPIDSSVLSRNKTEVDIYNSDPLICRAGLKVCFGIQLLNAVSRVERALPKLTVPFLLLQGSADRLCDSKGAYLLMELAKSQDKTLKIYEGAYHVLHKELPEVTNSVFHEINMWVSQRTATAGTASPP
Assay type: biochemical
Text: MGL is the predominant hydrolase in HeLa cells/cell homogenates.

SMILES	IC50
Cc1cc(-c2c3c(nn2C)[C@H](C)N(C(=O)c2ccc4ncccc4c2)CC3)ccn1 [Example 520, [(7S)-2,7-Dimethyl-3-(2-methyl-4-pyridyl)-5,7-dihydro-4H-pyrazolo[3,4-c]pyridin-6-yl]-(6-quinolyl)methanone]	1110 nM
C[C@H]1c2nn(C)c(-c3ccc4ccoc4c3)c2CCN1C(=O)c1ccc2ncccc2c1 [Example 532, [(7S)-3-(Benzofuran-6-yl)-2,7-dimethyl-5,7-dihydro-4H-pyrazolo[3,4-c]pyridin-6-yl]-(6-quinolyl)methanone]	65 nM
C[C@H]1c2nn(C)c(-c3cc(F)cc(C(F)F)c3)c2CCN1C(=O)c1ccc2c(c1)OCCC2 [Example 610, Chroman-7-yl-[(7S)-3-[3-(difluoromethyl)-5-fluoro-phenyl]-2,7-dimethyl-5,7-dihydro-4H-pyrazolo[3,4-c]pyridin-6-yl]methanone]	29.4 nM
C[C@H]1c2nn(C)c(-c3cc(F)cc(OC(F)F)c3)c2CCN1C(=O)c1ccc2c(c1)OCCC2 [Example 596, Chroman-7-yl-[(7S)-3-[3-(difluoromethoxy)-5-fluoro-phenyl]-2,7-dimethyl-5,7-dihydro-4H-pyrazolo[3,4-c]pyridin-6-yl]methanone]	28.7 nM
COc1ccccc1-c1c2c(nn1C)[C@H](C)N(C(=O)c1ccc3ncccc3c1)CC2 [Example 496, [(7S)-3-(2-Methoxyphenyl)-2,7-dimethyl-5,7-dihydro-4H-pyrazolo[3,4-c]pyridin-6-yl]-(6-quinolyl)methanone]	54.4 nM

Other lines, results leading:

IC50	SMILES
56.1 nM	C[C@H]1c2nn(C)c(-c3cc(F)c(F)c(F)c3)c2CCN1C(=O)c1n[nH]c2cnccc12 [Example 430, [(7S)-2,7-Dimethyl-3-(3,4,5-trifluorophenyl)-5,7-dihydro-4H-pyrazolo[3,4-c]pyridin-6-yl]-(1H-pyrazolo[3,4-c]pyridin-3-yl)methanone]
280 nM	Cc1ccc2nc(C)c(C(=O)N3CCc4c(nn(C)c4-c4cc(F)c(F)c(F)c4)[C@@H]3C)n2c1 [Example 405, (2,6-Dimethylimidazo[1,2-a]pyridin-3-yl)-[(7S)-2,7-dimethyl-3-(3,4,5-trifluorophenyl)-5,7-dihydro-4H-pyrazolo[3,4-c]pyridin-6-yl]methanone]

Same assay, conditions: 300 nM [Glycerol-1,3-3H]-oleyl glycerol, one hour incubation

SMILES	IC50
COc1cc(Cl)cc(C(=O)N2CCc3c(nn(C)c3-c3ccccc3)C2)c1 [Example 16, (3-Chloro-5-methoxyphenyl)(2-methyl-3-phenyl-2,4,5,7-tetrahydro-6H-pyrazolo[3,4-c]pyridin-6-yl)methanone]	77.9 nM
CC1c2nn(C)c(-c3cc(F)cc(F)c3)c2CCN1C(=O)c1cc2ccccc2cn1 (stereo not shown) [Example 160, (3-(3,5-Difluorophenyl)-2,7-dimethyl-2,4,5,7-tetrahydro-6H-pyrazolo[3,4-c]pyridin-6-yl)(isoquinolin-3-yl)methanone]	260 nM
C[C@H]1c2nn(C)c(-c3cccc(Cl)c3)c2CCN1C(=O)c1cc(CO)ccn1 [Example 119, (S)-(3-(3-Chlorophenyl)-2,7-dimethyl-2,4,5,7-tetrahydro-6H-pyrazolo[3,4-c]pyridin-6-yl)(4-(hydroxymethyl)pyridin-2-yl)methanone]	398 nM

The next lines start with the values.

IC50	SMILES
229 nM	CC(C)Oc1cncc(C(=O)N2CCc3c(nn(C)c3-c3cc(F)c(F)c(F)c3)[C@@H]2C)c1 [Example 305, [(7S)-2,7-Dimethyl-3-(3,4,5-trifluorophenyl)-5,7-dihydro-4H-pyrazolo[3,4-c]pyridin-6-yl]-(5-isopropoxy-3-pyridyl)methanone]
3740 nM	C[C@@H]1c2nn(C)c(-c3cc(F)cc(F)c3)c2CCN1C(=O)c1ccc2nccnc2c1 (single isomer, unassigned) [Example 169]
6.78 nM	COc1cc(Cl)cc(C(=O)N2CCc3c(nn(C)c3-c3cc(F)c(F)c(F)c3)[C@@H]2C)c1 [Example 192, (S)-(3-Chloro-5-methoxyphenyl)(2,7-dimethyl-3-(3,4,5-trifluorophenyl)-2,4,5,7-tetrahydro-6H-pyrazolo[3,4-c]pyridin-6-yl)methanone]

Source: US11820766B2, “Monoacylglycerol lipase modulators” (Janssen Pharmaceutica NV, priority 2018, dated 2023)
